Assay [1] has as its system C. albicans CAF2-1 strain. In words: Anti-Candida activity, MIC measurement. The format is cell-based. To be noted: CAF21STRAIN, C. albicans CAF2-1, RPMI1640, 42-48 hours at 35° C., visual inspection, read-out: Anti-Candida Activity (minimum inhibitory concentration, MIC). The gist of the method: (§1)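 C. albicans CAF2-1 was grown 48 h at 30° C. in SDB and diluted in RPMI1640 to 1.2×10^3 cells/mL. Frozen A. fumigatus Tsukuba was diluted to 4.5×10^3 cells/mL. Compounds, two-fold serially diluted in DMSO from 2.5 mg/mL, were cultured aerobically with fungi for 42-48 h at 35° C.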

Assay [2] has as its system A. fumigatus Tsukuba strain. In words: Anti-Aspergillus activity, MIC measurement. The class given is cell-based. To be noted: RPMI1640, 42-48 hours at 35° C., visual inspection, read-out: Anti-Aspergillus Activity (minimum inhibitory concentration, MIC). A digest of the protocol:
as §1

Values after ≈ are worked out from the molar mass of the structure shown.

Consider `Cc1ccc(-c2cc(Cc3ccc(OCc4ccccc4)cc3)no2)c(N)n1` [Example 170, 3-(3-(4-benzyloxy-benzyl)-isoxazol-5-yl)-6-methyl-pyridin-2-ylamine], for which the MIC in assay [1] came out at 0.78 mg/L (≈ 2.1 µM); in assay [2] it was 0.39 mg/L (≈ 1.05 µM).
For `Nc1ncc(Cl)cc1-c1cc(Cc2ccc(COc3ccccn3)cc2)no1` [Example 172], the MIC worked out at 6.25 mg/L (≈ 15.9 µM) in assay [1] and 12.5 mg/L (≈ 31.8 µM) in assay [2].
As for `Nc1ncc(F)cc1-c1cc(Cc2ccc(OCc3ccccc3)cc2)no1` [Example 173, 3-(3-(4-Benzyloxy-benzyl)-isoxazol-5-yl)-5-fluoro-pyridin-2-ylamine], the MIC in assay [1] was 1.56 mg/L (≈ 4.16 µM); in assay [2], 0.78 mg/L (≈ 2.08 µM).
Turning to `Nc1ncc(F)cc1-c1cc(Cc2ccc(OCc3ccc(F)cn3)cc2)no1` [Example 174, 5-Fluoro-3-(3-(4-(5-fluoro-pyridin-2-ylmethoxy)-benzyl)-isoxazol-5-yl)pyridin-2-ylamine], the MIC in assay [1] amounted to 6.25 mg/L (≈ 15.8 µM); in assay [2] it was 1.56 mg/L (≈ 3.96 µM).
Take `Nc1ncc(F)cc1-c1cc(Cc2ccc(OCc3cc(Cl)ccn3)cc2)no1` [Example 175, 3-(3-(4-(4-Chloro-pyridin-2-ylmethoxy)-benzyl)-isoxazol-5-yl)-5-fluoro-pyridin-2-ylamine]: the values for the MIC in assay [1] and in assay [2] were 0.78 mg/L (≈ 1.9 µM) and 1.56 mg/L (≈ 3.8 µM), respectively.
Consider `Nc1ccc(-c2cc(Cc3ccc(OCc4ccccn4)cc3)no2)cn1` [Example 177, 5-(3-(4-(Pyridin-2-ylmethoxy)-benzyl)-isoxazol-5-yl)-pyridin-2-ylamine], for which the MIC in assay [1] was 0.39 mg/L (≈ 1.09 µM); in assay [2], 0.78 mg/L (≈ 2.18 µM).
The like results for `Cc1ccc(Cc2ccc(Cc3cc(-c4ccc(N)nc4)on3)cc2)o1` [Example 178, 5-(3-(4-(5-Methyl-furan-2-ylmethyl)-benzyl)-isoxazol-5-yl)-pyridin-2-ylamine] were, in that order, 0.39 mg/L (≈ 1.13 µM) and 0.2 mg/L (≈ 0.579 µM).
For `Nc1ccc(-c2cc(Cc3ccc(OCc4ccccc4)nc3)no2)cn1` [Example 179, 5-(3-(6-Benzyloxy-pyridin-3-ylmethyl)-isoxazol-5-yl)-pyridin-2-ylamine], the MIC in assay [1] came to 0.78 mg/L (≈ 2.18 µM); in assay [2], 0.39 mg/L (≈ 1.09 µM).
The like results for `Nc1ccc(-c2cc(Cc3ccc(OCc4ccncc4)cc3)no2)cn1` [Example 180] were, in that order, 0.39 mg/L (≈ 1.09 µM) and 1.56 mg/L (≈ 4.35 µM).
Take `Nc1ccc(-c2cc(Cc3ccc(Oc4ccccc4)nc3)no2)cn1` [Example 181, 5-(3-(6-Phenoxy-pyridin-3-ylmethyl)-isoxazol-5-yl)-pyridin-2-ylamine]: the MIC came out at 1.56 mg/L (≈ 4.53 µM) in assay [1] and 0.39 mg/L (≈ 1.13 µM) in assay [2].
On to `Nc1ccc(-c2cc(Cc3ccc(Cc4ccc(Cl)o4)cc3)no2)cn1` [Example 182, 5-(3-(4-(5-Chloro-furan-2-ylmethyl)-benzyl)-isoxazol-5-yl)-pyridin-2-ylamine], for which the figures for the MIC in assay [1] and in assay [2] were over 25 mg/L and 0.2 mg/L (≈ 0.547 µM), respectively.
Taken in the same sequence, the figures for `Nc1ccc(-c2cc(Cc3ccc(OCc4cc(Cl)ccn4)cc3)no2)cn1` [Example 183, 5-(3-(4-(4-Chloro-pyridin-2-ylmethoxy)-benzyl)-isoxazol-5-yl)-pyridin-2-ylamine] were 0.2 mg/L (≈ 0.509 µM) and 0.78 mg/L (≈ 1.99 µM).
`Nc1ccc(-c2cc(Cc3ccc(OCc4ccc(F)cn4)cc3)no2)cn1` [Example 184, 5-(3-(4-(5-Fluoro-pyridin-2-ylmethoxy)-benzyl)-isoxazol-5-yl)-pyridin-2-ylamine]: the MIC in assay [1] is over 25 mg/L; in assay [2], 0.39 mg/L (≈ 1.04 µM).
With `Nc1ccc(-c2cc(Cc3ccc(Oc4ccccc4F)nc3)no2)cn1` [Example 185, 5-(3-(6-(2-Fluoro-phenoxy)-pyridin-3-ylmethyl)-isoxazol-5-yl)-pyridin-2-ylamine], the MIC in assay [1] and in assay [2] was 0.78 mg/L (≈ 2.15 µM) in each case.
For `Nc1ccc(-c2cc(Cc3ccc(Oc4ccc(F)cc4)nc3)no2)cn1` [Example 186, 5-(3-(6-(4-Fluoro-phenoxy)-pyridin-3-ylmethyl)-isoxazol-5-yl)-pyridin-2-ylamine], the MIC in assay [1] was 3.13 mg/L (≈ 8.64 µM); in assay [2], 0.78 mg/L (≈ 2.15 µM).
With `Cc1nc(N)ccc1-c1cc(Cc2ccc(COc3ccccn3)cc2)no1` [Example 187], the MIC was 1.56 mg/L (≈ 4.19 µM) in assay [1] and 0.78 mg/L (≈ 2.09 µM) in assay [2].
Regarding `Cc1nc(N)ccc1-c1cc(Cc2ccc(OCc3ccccc3)cc2)no1` [Example 188, 5-(3-(4-Benzyloxy-benzyl)-isoxazol-5-yl)-6-methyl-pyridin-2-ylamine], the MIC is 1.56 mg/L (≈ 4.2 µM) in assay [1] and 0.78 mg/L (≈ 2.1 µM) in assay [2].
On to `Nc1ncccc1-c1cc(Cc2ccc(OCc3ccccn3)cc2)on1` [Example 189, 3-(5-(4-(Pyridin-2-ylmethoxy)-benzyl)-isoxazol-3-yl)-pyridin-2-ylamine], for which the MIC in assay [1] turned out to be 0.05 mg/L (≈ 0.14 µM); in assay [2] it was 0.2 mg/L (≈ 0.558 µM).
Take `Cc1ccc(-c2cc(Cc3ccc(COc4ccccn4)cc3)no2)cn1` [Example 190, 2-Methyl-5-(3-(4-(pyridin-2-yloxymethyl)-benzyl)-isoxazol-5-yl)-pyridine]: the MIC in assay [1] and in assay [2] was 0.78 mg/L (≈ 2.18 µM) throughout.
In the case of `Nc1ncccc1-c1cnn(Cc2ccc(OCc3ccccc3)nc2)c1` [Example 191, 3-(1-(6-Benzyloxy-pyridin-3-ylmethyl)-1H-pyrazol-4-yl)-pyridin-2-ylamine], the MIC was 0.2 mg/L (≈ 0.56 µM) in assay [1] and 0.39 mg/L (≈ 1.09 µM) in assay [2].
In the case of `Nc1ncccc1-c1cnn(Cc2ccc(Oc3ccccc3)nc2)c1` [Example 193, 3-(1-(6-Phenoxy-pyridin-3-ylmethyl)-1H-pyrazol-4-yl)-pyridin-2-ylamine], the MIC in assay [1] and in assay [2] was 0.78 mg/L (≈ 2.27 µM) in each case.
For `C#CCOCc1ccc(Cn2cc(-c3cccnc3N)cn2)cc1` [Example 194, 3-(1-(4-Prop-2-ynyloxymethyl-benzyl)-1H-pyrazol-4-yl)-pyridin-2-ylamine], the values for the MIC in assay [1] and in assay [2] were 1.56 mg/L (≈ 4.9 µM) and 3.13 mg/L (≈ 9.83 µM), respectively.
Taken in the same sequence, the figures for `Nc1ncccc1-c1cnn(Cc2ccc(COCC3CC3)cc2)c1` [Example 195, 3-(1-(4-Cyclopropylmethoxymethyl-benzyl)-1H-pyrazol-4-yl)-pyridin-2-ylamine] were 0.39 mg/L (≈ 1.17 µM) and 0.78 mg/L (≈ 2.33 µM).
`CCOCc1ccc(Cn2cc(-c3cccnc3N)cn2)cc1` [Example 196, 3-(1-(4-Ethoxymethyl-benzyl)-1H-pyrazol-4-yl)-pyridin-2-ylamine]: the MIC in assay [1] and in assay [2] was 6.25 mg/L (≈ 20.3 µM) throughout.
As for `Nc1ncccc1-c1cnn(Cc2ccc(COC3CCC3)cc2)c1` [Example 197, 3-(1-(4-Cyclobutoxymethyl-benzyl)-1H-pyrazol-4-yl)-pyridin-2-ylamine], the results for the MIC in assay [1] and in assay [2] were 3.13 mg/L (≈ 9.36 µM) and 1.56 mg/L (≈ 4.66 µM), respectively.
`Nc1ccc(-c2cnn(Cc3ccc(OCc4ccccc4)nc3)c2)c(N)n1` [Example 198, 3-(1-(6-Benzyloxy-pyridin-3-ylmethyl)-1H-pyrazol-4-yl)-pyridin-2,6-diamine]: the values for the MIC in assay [1] and in assay [2] were 0.78 mg/L (≈ 2.09 µM) and 1.56 mg/L (≈ 4.19 µM), respectively.
Turning to `Nc1ccc(-c2cnn(Cc3ccc(OCc4ccccn4)cc3)c2)c(N)n1` [Example 199], the MIC in assay [1] was 3.13 mg/L (≈ 8.4 µM); in assay [2], 6.25 mg/L (≈ 16.8 µM).
In the case of `Nc1ccc(-c2cnn(Cc3ccc(Oc4ccccc4)nc3)c2)c(N)n1` [Example 200, 3-(1-(6-Phenoxy-pyridin-3-ylmethyl)-1H-pyrazol-4-yl)-pyridin-2,6-diamine], the MIC in assay [1] and in assay [2] was 3.13 mg/L (≈ 8.73 µM) each time.
Regarding `c1ccc(COc2ccc(Cc3cc(-c4cccnc4)on3)cc2)cc1` [Example 201, 3-(3-(4-Benzyloxy-benzyl)-isoxazol-5-yl)-pyridine], the figures for the MIC in assay [1] and in assay [2] were 0.78 mg/L (≈ 2.28 µM) and 0.39 mg/L (≈ 1.14 µM), respectively.

These data come from patent US8158657B2, “Heterocycles substituted pyridine derivatives and antifungal agent containing thereof” (Eisai R&D Management Co., Ltd., priority 2005, dated 2012).
